In patent publication US4593043A, “Mercapto acyl-carnitines and pharmaceutical compositions containing same” (Sigma-Tau Industrie Farmaceutiche Riunite S.p.A., priority 1981, dated 1986):
Where a name gives a salt, the structure may show the parent alone.

Tests used:
[1] = Acute toxicity in the mouse, Weil method; settings: in vivo, ip
Text: The acute toxicity of the compounds of general formula (I) has been studied in the mouse with the Weil method (Weil C. S., Biometer. J. 8, 249, 1952).
The LD50 values of some compounds illustrated in Table I, indicate that the compounds are remarkably well tolerated. PG,20
general formula (I). Weil's method (N = 5, K = 4) Cl = hydro-

[2] = tested on: damage provoked by irradiation in rats; assay: Protection against X-ray exposure (survival after irradiation); type: in vivo, Albino Wister rats; settings: 30-40 mg Kg^-1 1 hour before irradiation and 15 mg Kg^-1 per day in the subsequent 20 days
Description: The effect of the compounds of formula (I) towards the damages provoked by X-ray exposure was studied.
The experiment animals, Albino Wister rats, treated with the compounds under examination (30-40 mg Kg^-1 1 hour before irradiation and 15 mg Kg^-1 per day in the subsequent 20 days) were irradiated and checked over a time period to detect the onset of toxic effects and the time of survival with respect to the control group. […]

[3] = tested on: burned cutaneous area of the back; assay: Cutaneous regeneration from burns; type: in vivo; settings: rabbits, oral, 20 mg Kg^-1 once a day for seven days; for Percentage of regenerated tissue, 4th day: 4th day from treatment; for Percentage of regenerated tissue, 8th day: 8th day from treatment
Description: The ability of the compounds of formula (I) to speed up the cutaneous regeneration from burns has been tested in rabbits.
A 4 cm^2 cutaneous area of the average-top zone of the test animal back was burned.
The compounds were orally administered in aqueous solution at the dose of 20 mg Kg^-1 once a day for seven days. The area of cutaneous regeneration, i.e. the area of the newly formed tissue was then measured (Table III).

bronchial secretion = assay: Expectorant activity (bronchial secretion), method of Perry et al.; type: in vivo, male rabbits; settings: rabbits; for Percentage variations of bronchial secretion, 1 hour: 1 hour after administration; for Percentage variations of bronchial secretion, 2 hours: 2 hours after administration; for Percentage variations of bronchial secretion, 4 hours: 4 hours after administration
Description: The tests were carried out on male rabbits, weighing 2-3 Kg, anesthetized with ethyl urethane, by following the method disclosed by Perry et al. (J. Pharm. Exp. Ther. 73, 65, 1941).
Each cannula was connected to a feeding device which delivered a steady flow-rate of pre-heated air (36°-38° C.) at constant humidity (80%). At the lower end of each cannula, a graduated cylinder was fitted, wherein the bronchial secretion was collected. All of the animals breathed spontaneously and consequently they self-regulated the air intake suitable for normal respiration. […] Each dose of drug was administered to 5 animals. The control animals (8) were given water only. The amount of secretion was determined after 1, 2 and 4 hours from administration.

[4] = Mucolytic activity in vitro on human sputum (thromboelastograph, method of Morandini et al.); settings: for Percentage drop ± s.e. of the tracing versus maximum peak (mucolytic activity index), dilution 1/30: 1 ml of a 10% solution at dilution 1/30; for Percentage drop ± s.e. of the tracing versus maximum peak (mucolytic activity index), dilution 1/60: 1 ml of a 10% solution at dilution 1/60
Description: The tests were carried out in vitro by using the method disclosed by Morandini et al. (Lotta contro la tubercolosi 47, n. 4, 1977). A thromboelastograph was used to follow the variations induced by the compounds of general formula (I) and acetylcisteine on the rheological properties of human sputum.

[5] = mice, ep, Weil's method (N = 5, K = 4)

CCC(S)C(=O)OC(CC(=O)O)C[N+](C)(C)C (stereo not shown) [2-mercapto butyryl carnitine Cl]
LD50 [1]: 294 mg/kg | Percentage of surviving animals [2]: 70% | Percentage of surviving animals, day 10 from irradiation [2]: 100% | Percentage of surviving animals, day 20 from irradiation [2]: 85% | Percentage of regenerated tissue, 4th day [3]: 35% | Percentage of regenerated tissue, 8th day [3]: 95% | Percentage variations of bronchial secretion, 1 hour (bronchial secretion; 15 mg oral): +0.5% | Percentage variations of bronchial secretion, 2 hours (bronchial secretion; 15 mg oral): +0.9% | Percentage variations of bronchial secretion, 4 hours (bronchial secretion; 15 mg oral): +2.3% | Percentage drop ± s.e. of the tracing versus maximum peak (mucolytic activity index), dilution 1/30 [4]: 85.3 ± 4% | Percentage drop ± s.e. of the tracing versus maximum peak (mucolytic activity index), dilution 1/60 [4]: 38.4 ± 5%

CC(S)C(=O)OC(CC(=O)O)C[N+](C)(C)C (stereo not shown) [2-mercapto propionyl carnitine Cl]
LD50 [1]: 294 mg/kg | Percentage of surviving animals [2]: 45% | Percentage of surviving animals, day 10 from irradiation [2]: 80% | Percentage of surviving animals, day 20 from irradiation [2]: 70% | Percentage of regenerated tissue, 4th day [3]: 30% | Percentage of regenerated tissue, 8th day [3]: 65% | Percentage variations of bronchial secretion, 1 hour (bronchial secretion; 10 mg oral): +0.1% | Percentage variations of bronchial secretion, 2 hours (bronchial secretion; 10 mg oral): +0.2% | Percentage variations of bronchial secretion, 4 hours (bronchial secretion; 10 mg oral): +2.0% | Percentage drop ± s.e. of the tracing versus maximum peak (mucolytic activity index), dilution 1/30 [4]: 85.4 ± 6% | Percentage drop ± s.e. of the tracing versus maximum peak (mucolytic activity index), dilution 1/60 [4]: 46.5 ± 6%

C[N+](C)(C)CC(CC(=O)O)OC(=O)CCS (stereo not shown) [3-mercapto propionyl carnitine Cl, 3-mercapto propionyl carnitine hydrochloride]
LD50 [1, 5]: 312 mg/kg | Percentage of surviving animals [2]: 60% | Percentage of surviving animals, day 10 from irradiation [2]: 90% | Percentage of surviving animals, day 20 from irradiation [2]: 80% | Percentage of regenerated tissue, 4th day [3]: 40% | Percentage of regenerated tissue, 8th day [3]: 80% | Percentage variations of bronchial secretion, 1 hour (bronchial secretion; 15 mg oral): -0.2% | Percentage variations of bronchial secretion, 2 hours (bronchial secretion; 15 mg oral): +0.4% | Percentage variations of bronchial secretion, 4 hours (bronchial secretion; 15 mg oral): +1.1%

C[N+](C)(C)CC(CC(=O)O)OC(=O)CCCS (stereo not shown) [4-mercapto butyryl carnitine Cl, 4-mercapto butyryl carnitine hydrochloride]
LD50 [1, 5]: 303 mg/kg | Percentage of surviving animals [2]: 55% | Percentage of surviving animals, day 10 from irradiation [2]: 100% | Percentage of surviving animals, day 20 from irradiation [2]: 80% | Percentage of regenerated tissue, 4th day [3]: 25% | Percentage of regenerated tissue, 8th day [3]: 70% | Percentage variations of bronchial secretion, 1 hour (bronchial secretion; 20 mg oral): +0.4% | Percentage variations of bronchial secretion, 2 hours (bronchial secretion; 20 mg oral): +0.6% | Percentage variations of bronchial secretion, 4 hours (bronchial secretion; 20 mg oral): +1.2%

C[N+](C)(C)CC(CC(=O)O)OC(=O)CCCCS (stereo not shown) [5-mercapto valeryl carnitine Cl]
LD50 [1]: 281 mg/kg | Percentage of surviving animals [2]: 50% | Percentage of surviving animals, day 10 from irradiation [2]: 95% | Percentage of surviving animals, day 20 from irradiation [2]: 70% | Percentage of regenerated tissue, 4th day [3]: 20% | Percentage of regenerated tissue, 8th day [3]: 60% | Percentage variations of bronchial secretion, 1 hour (bronchial secretion; 15 mg oral): +0.6% | Percentage variations of bronchial secretion, 2 hours (bronchial secretion; 15 mg oral): -0.3% | Percentage variations of bronchial secretion, 4 hours (bronchial secretion; 15 mg oral): +1.4% | Percentage drop ± s.e. of the tracing versus maximum peak (mucolytic activity index), dilution 1/30 [4]: 90.3 ± 6% | Percentage drop ± s.e. of the tracing versus maximum peak (mucolytic activity index), dilution 1/60 [4]: 48.3 ± 6%

CC(=O)N[C@@H](CS)C(=O)O [Acetylcysteine, reference compound]
Percentage drop ± s.e. of the tracing versus maximum peak (mucolytic activity index), dilution 1/30 [4]: 75.7 ± 7% | Percentage drop ± s.e. of the tracing versus maximum peak (mucolytic activity index), dilution 1/60 [4]: 22.3 ± 4%

C[N+](C)(C)CC(CC(=O)O)OC(=O)CS (stereo not shown) [mercapto acetyl carnitine Cl]
LD50 [1]: 308 mg/kg | Percentage of surviving animals [2]: 30% | Percentage of surviving animals, day 10 from irradiation [2]: 85% | Percentage of surviving animals, day 20 from irradiation [2]: 45% | Percentage of regenerated tissue, 4th day [3]: 35% | Percentage of regenerated tissue, 8th day [3]: 70% | Percentage variations of bronchial secretion, 1 hour (bronchial secretion; 10 mg oral): +0.3% | Percentage variations of bronchial secretion, 2 hours (bronchial secretion; 10 mg oral): +0.9% | Percentage variations of bronchial secretion, 4 hours (bronchial secretion; 10 mg oral): +2.4% | Percentage drop ± s.e. of the tracing versus maximum peak (mucolytic activity index), dilution 1/30 [4]: 78.3 ± 5% | Percentage drop ± s.e. of the tracing versus maximum peak (mucolytic activity index), dilution 1/60 [4]: 45.2 ± 4%
